Consider 87 compounds from PubChem BioAssay AID1845228.

One may read the Papp as a coefficient for how fast a substance crosses the barrier. Read a high Papp as fast passage.

The conditions of this data set: pampa; 60.0 min; 50.0 µM.
As to `CCS(=O)(=O)N1CC(CC#N)(n2cc(-c3ncnc4[nH]ccc34)cn2)C1`, the Papp is < 1 ×10⁻⁶ cm/s.
For `CCNC(=O)c1cc2c(-c3cc(OCCN4CCCC4)c(Cl)cc3Cl)nc(N)nc2s1` the value was 123 ×10⁻⁶ cm/s; for `Cn1nnnc1Sc1ncnc2scc(-c3cccc4c3sc3ccccc34)c12`, 12 ×10⁻⁶ cm/s; for `O=C(N/N=C/c1ccc(O)c(O)c1)c1cc2ccccc2cc1O`, 5 ×10⁻⁶ cm/s.
Regarding `CNCCCOc1cc(F)c(-c2c(Cl)nc3ncnn3c2N[C@@H](C)C(F)(F)F)c(F)c1`, the Papp came out at 26 ×10⁻⁶ cm/s.
For `COCCn1cnc2c(c(-c3ccccc3)c(-c3ccccc3)n2CCc2ccccc2)c1=N` the value was 116 ×10⁻⁶ cm/s; for `CC[n+]1c(-c2ccccc2)c2cc(N)ccc2c2ccc(N)cc21`, 2 ×10⁻⁶ cm/s; for `CC(C)N(CCCCOCC(=O)NS(C)(=O)=O)c1cnc(-c2ccccc2)c(-c2ccccc2)n1`, 9 ×10⁻⁶ cm/s.
`Cc1nn(C)c(C)c1-c1cccc2c1CCC(N(C)C)C2` (configuration not stated) gave a Papp of 13.4 ×10⁻⁶ cm/s.
Consider `Cn1c(CCCCCCC(=O)NO)nc2cc(N(CCCl)CCCl)ccc21`, for which the apparent permeability coefficient (Papp) is < 1 ×10⁻⁶ cm/s.
The compound `O=C(Nc1cnn2ccc(N3CCC[C@@H]3c3cc(F)ccc3F)nc12)N1CC[C@H](O)C1` returned a Papp of 3 ×10⁻⁶ cm/s.
Regarding `Nc1ncnc2c1ncn2CCNCCCCCO`, the apparent permeability coefficient (Papp) is < 1 ×10⁻⁶ cm/s.
As for `COCCNCCCn1c(C(=O)CF)c(-c2ccc(C)cc2)c2c(N)ncnc21`, the apparent permeability (Papp) turned out to be 20 ×10⁻⁶ cm/s.
As to `COC(=O)C[C@@H](C(=O)OC)n1cnc2c(c(-c3ccccc3)cn2Cc2ccc(Br)cc2)c1=N`, the Papp was < 1 ×10⁻⁶ cm/s.
For `CCn1c(C(=O)N(C2CC2)C2CC2)cc2c3c(ncn3C)c(Nc3cc(C)n(C)n3)nc21` the value was 31 ×10⁻⁶ cm/s; for `CCN1CCN(C(=O)N[C@@H](C(=O)N[C@]2(OC)C(=O)N3C(C(=O)O)=C(CSc4nnnn4C)CS[C@@H]32)[C@H](C)O)C(=O)C1=O`, < 1 ×10⁻⁶ cm/s.
For `CCN(CC)CC(=O)Oc1ccc(NC(C)=O)cc1` the value was 7 ×10⁻⁶ cm/s.
The result for `CC1=C(/C=C/C(C)=C/C=C/C(C)=C/C(=O)O)C(C)(C)CCC1` reads < 1 ×10⁻⁶ cm/s; that for `O=C(c1ccc(-c2ncc3cnc(-c4cccc(F)c4)cn23)cc1)N1CC(O)C1`, 27 ×10⁻⁶ cm/s.
As for `Cc1c2ccncc2c(C)c2c1[nH]c1ccccc12`, the Papp is > 300 ×10⁻⁶ cm/s.
In the case of `Cc1onc(-c2ccccc2)c1C(=O)N[C@@H]1C(=O)N2[C@@H]1SC(C)(C)[C@@H]2C(=O)O`, the Papp was determined as 8 ×10⁻⁶ cm/s.
For `O=C(NCCc1cnc[nH]1)c1ccc(-c2ncc3cnc(-c4cccc(F)c4)cn23)cc1` the value was < 1 ×10⁻⁶ cm/s; for `Cc1ccccc1CN1CCn2c(nn(CC3COc4ccccc4O3)c2=O)C1=O` (configuration not stated), 57.7 ×10⁻⁶ cm/s; for `COc1ccccc1NC(=O)C1=C(C)Nc2c(C(=O)Nc3cccc(C)c3)cnn2C1c1ccccc1Cl` (configuration not stated), 160 ×10⁻⁶ cm/s.
For `O=C1[C@H](CC[C@H](O)c2ccc(F)cc2)[C@@H](c2ccc(O)cc2)N1c1ccc(F)cc1` the value was < 1 ×10⁻⁶ cm/s; for `N#Cc1cccc(-c2nc(-c3cccnc3)no2)c1`, 150 ×10⁻⁶ cm/s; for `O=C(NCc1cnccn1)c1ccc(-c2ncc3cnc(-c4cccc(F)c4)cn23)cc1`, 94 ×10⁻⁶ cm/s.
For `CCN1CCN(C(=O)c2ccc3c(c2)N(Cc2cc(C)ccc2C)C(=O)c2ccccc2S3(=O)=O)CC1` the value was 63 ×10⁻⁶ cm/s; for `CC1=C(C(=O)O)N2C(=O)[C@@H](N)[C@H]2SC1`, < 1 ×10⁻⁶ cm/s.
Turning to `C1CCC(COCCc2noc(C3CNC3)n2)C1`, the apparent permeability (Papp) was < 1 ×10⁻⁶ cm/s.
The result for `O=C1NCN(c2ccccc2)C12CCN(CCCC(c1ccc(F)cc1)c1ccc(F)cc1)CC2` reads 42 ×10⁻⁶ cm/s; that for `C[C@@H](O)[C@H]1C(=O)N2C(C(=O)O)=C([C@H]3CCCO3)S[C@H]12`, < 1 ×10⁻⁶ cm/s.
`CC[C@@]1(O)C(=O)OCc2c1cc1n(c2=O)Cc2cc3c(CN(C)C)c(O)ccc3nc2-1` displayed a Papp of 1.37 ×10⁻⁶ cm/s.
For `Cc1ccccc1N(C)C1CN([S+](=O)([O-])c2cccc(C(F)(F)F)c2)C1` the value was > 300 ×10⁻⁶ cm/s; for `C=CCNC1=C2C[C@@H](C)C[C@H](OC)[C@H](O)[C@@H](C)/C=C(\C)[C@H](OC(N)=O)[C@@H](OC)/C=C\C=C(/C)C(=O)NC(=CC1=O)C2=O`, 73 ×10⁻⁶ cm/s.
As to `COc1ccc(Cn2c(-c3ccccc3)c(-c3ccccc3)c3c(=N)n(CCO)cnc32)cc1`, the apparent permeability (Papp) is 279 ×10⁻⁶ cm/s.
In turn, `O=C(Nc1cccnc1)c1cccs1` returned a Papp of 10 ×10⁻⁶ cm/s.
The result for `COc1ccc(S(=O)(=O)Nc2cccnc2Nc2ccc(O)cc2)cc1` reads 13 ×10⁻⁶ cm/s; that for `CCOC(=O)[C@H](CCc1ccccc1)N[C@@H](C)C(=O)N1C(=O)N(C)C[C@H]1C(=O)O`, < 1 ×10⁻⁶ cm/s; that for `CC[C@@H]1CN(C(=O)NCC(F)(F)F)C[C@@H]1c1cnc2cnc3[nH]ccc3n12`, 2 ×10⁻⁶ cm/s.
For `CON(C)Cc1ccc(O)c2c1C[C@H]1C[C@H]3[C@H](N(C)C)C(=O)C(C(N)=O)=C(O)[C@@]3(O)C(=O)C1=C2O` the value was 2 ×10⁻⁶ cm/s.
The result for `N=c1c2c(-c3ccccc3)c(-c3ccccc3)n(Cc3ccccc3)c2ncn1C1CCN(Cc2ccccc2)CC1` reads 233 ×10⁻⁶ cm/s.
In turn, `COCCn1cnc2c(c(-c3ccccc3)c(-c3ccccc3)n2Cc2ccccc2)c1=N` came in with an apparent permeability coefficient (Papp) of 174 ×10⁻⁶ cm/s.
For `CC1NC(C(=O)O)Cc2c1[nH]c1ccccc21` (configuration not stated) the value was < 1 ×10⁻⁶ cm/s.
In the case of `CC(C)NC(=O)COc1cccc(-c2nc(Nc3ccc4[nH]ncc4c3)c3ccccc3n2)c1`, the Papp is 226 ×10⁻⁶ cm/s.
For `N=c1c2c(-c3ccccc3)c(-c3ccccc3)n(Cc3ccccc3)c2ncn1Cc1ccc2c(c1)OCO2` the value was 3 ×10⁻⁶ cm/s; for `CN(C)CCn1cnc2c(c(-c3ccccc3)c(-c3ccccc3)n2Cc2ccccc2)c1=N`, 76 ×10⁻⁶ cm/s.
For `Cc1nc(C2CCCCC2)c(-c2ccc(S(N)(=O)=O)c(F)c2)o1` the value was 172 ×10⁻⁶ cm/s; for `N=c1c2c(-c3ccccc3)c(-c3ccccc3)n(CCc3ccccc3)c2ncn1CCCCO`, 218 ×10⁻⁶ cm/s; for `CC[C@@H](c1ccc(F)c(F)c1)n1c(C(=O)OC)c(-c2ccno2)[nH]c1=S`, 195 ×10⁻⁶ cm/s.
Regarding `NC(=O)NCC(=O)N[C@H]1CC[C@H](Nc2nccc(-c3ccncc3)n2)C1`, the Papp is < 1 ×10⁻⁶ cm/s.
Take `CN(C)CCn1nnnc1SCC1=C(C(=O)O)N2C(=O)[C@@H](NC(=O)Cc3csc(N)n3)[C@H]2SC1`: the Papp is 6 ×10⁻⁶ cm/s.
For `Cc1ccc(-c2c(C(=O)CF)n(CCCO)c3ncnc(N)c23)cc1` the value was 18 ×10⁻⁶ cm/s; for `CC[C@@H]1C[C@]1(NC(=O)[C@@H]1C[C@@H]2CN1C(=O)[C@H](C(C)(C)C)NC(=O)OCC(C)(C)CCCCc1cccc3c1CN(C3)C(=O)O2)C(=O)NS(=O)(=O)C1CC1`, 10 ×10⁻⁶ cm/s; for `O=C(NCCCN1CCCC1=O)c1ccc(-c2ncc3cnc(-c4ccccc4)cn23)cc1`, 31 ×10⁻⁶ cm/s.
For `COc1ccc(CCn2cnc3c(c(-c4ccccc4)c(-c4ccccc4)n3Cc3ccccc3)c2=N)cc1OC` the value was 287 ×10⁻⁶ cm/s; for `Cc1ccc(=O)n(-c2ccccc2)c1`, 14 ×10⁻⁶ cm/s; for `C/C(=C(\CCOC(=O)C(C)C)SS/C(CCOC(=O)C(C)C)=C(/C)N(C=O)Cc1cnc(C)nc1N)N(C=O)Cc1cnc(C)nc1N`, 3 ×10⁻⁶ cm/s.
The result for `COC(=O)[C@]12CCC(C)(C)C[C@@H]1[C@@H]1C(=O)C=C3[C@@]4(C)C=C(C#N)C(=O)C(C)(C)[C@@H]4CC[C@@]3(C)[C@]1(C)CC2` reads 8 ×10⁻⁶ cm/s; that for `Cn1nnnc1Sc1ncnc2scc(-c3ccc(Br)cc3)c12`, 159 ×10⁻⁶ cm/s; that for `N=c1c2c(-c3ccccc3)cn(Cc3ccc(Br)cc3)c2ncn1CCCCO`, 208 ×10⁻⁶ cm/s.
Consider `OCCOCCN1CCN(C(c2ccccc2)c2ccc(Cl)cc2)CC1` (configuration not stated), for which the Papp came to 114 ×10⁻⁶ cm/s.
The result for `Nc1c2ccccc2nc2ccccc12` reads 36 ×10⁻⁶ cm/s; that for `O=C(NCCCO)c1ccc(-c2ncc3cnc(-c4cccc(F)c4)cn23)cc1`, 46 ×10⁻⁶ cm/s.
As to `COc1ccc2c(c1)C(c1ccc(F)cc1)=C(CN1CCCC1)CO2`, the apparent permeability (Papp) was found to be 100 ×10⁻⁶ cm/s.
Consider `CO[C@@]1(NC(=O)C(C(=O)O)c2ccc(O)cc2)C(=O)N2C(C(=O)O)=C(CSc3nnnn3C)CO[C@@H]21` (some centres not stated), for which the apparent permeability coefficient (Papp) was < 1 ×10⁻⁶ cm/s.
In turn, `O=C(O)C[C@H]1CCc2c1[nH]c1ccc(OCc3ccc(C4CCCC4)c(C(F)(F)F)c3)cc21` yielded a Papp of 46 ×10⁻⁶ cm/s.
The result for `COc1ccc(Cn2c(-c3ccccc3)c(-c3ccccc3)c3c(=N)n(N4CCOCC4)cnc32)cc1` reads 160 ×10⁻⁶ cm/s; that for `CCNC1(C(N)=O)CN(c2nc(C)nc3c(-c4ccc(Cl)cc4)c(-c4ccccc4Cl)nn23)C1`, 8.69 ×10⁻⁶ cm/s.
The compound `c1ccc(Nc2nc3c(s2)CCCc2[nH]ncc2-3)nc1` yielded a Papp of 194 ×10⁻⁶ cm/s.
Take `CC(=O)N1CCN(C(=O)c2ccc(-c3ncc4cnc(-c5cccc(F)c5)cn34)cc2)CC1`: the Papp was < 1 ×10⁻⁶ cm/s.
On to `Cc1cc(CNC(=O)c2ccc3c(c2)n(CC2CC2)c(=O)n3C2CCCCC2)on1`, for which the apparent permeability (Papp) was > 300 ×10⁻⁶ cm/s.
The result for `Cn1nnnc1Sc1ncnc2scc(-c3cccs3)c12` reads 244 ×10⁻⁶ cm/s.
With `N#Cc1c[nH]c2c(C(=O)N3CCN(CCc4ccc(F)cc4)CC3)cccc12`, the Papp came out at 121 ×10⁻⁶ cm/s.
For `CCCCN(CCCC)C(=O)CN1C[C@H](c2ccc3c(c2)OCO3)[C@@H](C(=O)O)[C@@H]1c1ccc(OC)cc1` the value was 9 ×10⁻⁶ cm/s.
For `NCC1(CC(=O)O)CCCCC1`, the Papp was < 1 ×10⁻⁶ cm/s.
`N=c1c2c(-c3ccccc3)cn(Cc3ccccc3)c2ncn1C1CCC(O)CC1` (configuration not stated) displayed a Papp of 217 ×10⁻⁶ cm/s.
For `COc1cc(Cc2cnc(N)nc2N)cc(OC)c1OC` the value was 14 ×10⁻⁶ cm/s; for `O=C(O)Cc1ccc2c(c1)C(=O)c1ccccc1CO2`, < 1 ×10⁻⁶ cm/s; for `COCCn1cnc2c(c(-c3ccccc3)c(-c3ccccc3)n2Cc2ccc(OC)cc2)c1=N`, 231 ×10⁻⁶ cm/s.
For the compound `COc1cc(OC)c(OC)cc1CN1CCc2nc(N3CCN(c4ccccc4F)CC3)ncc2C1`, the Papp is > 300 ×10⁻⁶ cm/s.
Regarding `CC(=O)OC(C)OC(=O)C(C)c1ccc(-c2ccccc2)c(F)c1` (configuration not stated), the Papp is > 300 ×10⁻⁶ cm/s.
The result for `CO/N=C(\C(=O)N[C@@H]1C(=O)N2C(C(=O)O)=C(CSc3nc(C)c(CC(=O)O)s3)CS[C@H]12)c1csc(N)n1` reads < 1 ×10⁻⁶ cm/s.
Regarding `C=CC1=C(C(=O)O)N2C(=O)[C@@H](NC(=O)/C(=N\O)c3csc(N)n3)[C@H]2SC1`, the Papp is < 1 ×10⁻⁶ cm/s.
Turning to `COCCN(C)Cc1ccc2nc3sc(C(=O)N(C)C4CCCCC4)cn3c2c1`, the Papp was 79 ×10⁻⁶ cm/s.
The result for `O=C(C[C@@H]1NCCC[C@H]1O)Cn1cnc2cc(Br)c(Cl)cc2c1=O` reads 43 ×10⁻⁶ cm/s; that for `Nc1ccc(/C=C/C(=O)NCc2cc3cc(-c4ccc(C(=O)N5CCC(F)(F)CC5)cc4)cc(-c4ccc(F)cc4)c3o2)cn1`, < 1 ×10⁻⁶ cm/s.
